Results on 15 compounds are retold here after patent US6680335B2, “Methods of modulating protein tyrosine kinase function with substituted indolinone compounds” (Sugen, Inc., priority 1998, dated 2004).

pIC50: −log10 of the molar value.

The target in one assay is T1, pyk-2 protein kinase (Homo sapiens, UniProt Q14289).
T1 construct: made in house; host or cells: Schizosaccharomyces pombe strain SP200, pRSP expression plasmids
The assay is described as follows: Assay measuring PYK-2 protein kinase activity (phosphorylation of a biotinylated peptide). The assay is classed as biochemical. Particulars: pyk-2 from transformed yeast lysate, 5 μM ATP; for inhibition at 100 µM: compound at 100 μM; for pIC50: cells without %. As for the experimental part: This assay is used to determine pyk-2 protein kinase activity measuring phosphorylation of a biotinylated peptide as the readout.
a. Yeast transformed with pyk-2.
b. Cell lysates: Yeast cells expressing pyk-2 are pelleted, washed once with water, re-pelleted and stored at −80° C. until use.
(§1) c. N-terminus biotinylated […] is prepared by standard procedures well known to those skilled in the art.
(§2) h. […] S. Pombe strain SP200 (h-s leul.32 ura4 ade21O) was grown as described and transformations were pRSP expression plasmids were done by the lithium acetate method (Superti-Furga, supra). Cells were grown in the presence of 1 μM thiamine to repress expression from the nmtl promoter or in the absence of thiamine to induce expression.
a. Preparation of pyk-2 coated ELISA plate.
1. Coat ELISA plate with 0.5 μg/well anti-pyk-2 mab in 100 μL of pH 9.6 sodium carbonate buffer at 4° C. overnight.
(§3) 2. Wash wells once with PBS.
(§4) 3. Block plate with 0.15 mL 5% milk in PBS for 30 min. at room temperature.
(§5) 4. Wash plate 5× with PBS.
5. Add 10 μg/well of pyk-2 transformed yeast lysates diluted in Lysis Buffer (0.1 mL total volume per well). (Amount of lysate may vary between hatches.) Shake plate for 20 minutes at room temperature.
(§6) b. Preparation of phosphotyrosine antibody-coated ELISA plate.
(§7) 1. 4G10 plate: coat 0.5 μg/well 4G10 in 100 μL PBS overnight at 4° C. and block with 150 μL of 5% milk in PBS for 30 minutes at room temperature.
(§8) c. Kinase assay procedure.
(§9) 1. Remove unbound proteins from steps 1-7, above, and wash plates 5× with PBS.
2. Add 0.08 mL Kinase Reaction Mixture per well (containing […] of 10×Kinase Buffer and 10 pM (final concentration) biotin-[…] per well diluted in water.
(§10) 3. Add 10 μL of compound diluted in water containing 10% DMSO and pre-incubate for 15 minutes at room temperature.
(§11) 4. Start kinase reaction by adding 10 μL/well of 0.05 mM ATP in water (5 μM ATP final).
(§12) 5. Shake ELISA plate for 15 min. at room temperature.
(§13) 6. Stop kinase reaction by adding 10 μL of 0.5 M EDTA per well.
(§14) 7. Transfer 90 μL supernatant to a blocked 4G10 coated ELISA plate from section B, above.
(§15) 8. Incubate for 30 min. while shaking at room temperature.
(§16) 9. Wash plate 5× with TBST.
(§17) 10. Incubate with Vectastain ELITE ABC reagent (100 μL/well) for 30 min. at room temperature.
(§18) 11. Wash the wells 5× with TBST.
(§19) 12. Develop with Turbo TMB.
(§20) The IC50 values were measured for several of the compounds of the invention.

In a further assay the target is T2, src protein kinase (Gallus gallus, UniProt P00523).
T2 construct: made in house; host or cells: Schizosaccharomyces pombe strain SP200, pRSP expression plasmids
The assay is described as follows: Assay measuring SRC protein kinase activity (phosphorylation of a biotinylated peptide). The assay is classed as biochemical. Particulars: src from transformed yeast lysate, 5 μM ATP; for inhibition at 100 µM: compound at 100 μM; for pIC50: cells without %. As for the experimental part:
This assay is used to determine src protein kinase activity measuring phosphorylation of a biotinylated peptide as the readout.
a. Yeast transformed with src.
b. Cell lysates: Yeast cells expressing src are pelleted, washed once with water, re-pelleted and stored at −80° C. until use.
as §1, §2
a. Preparation of src coated ELISA plate.
1. Coat ELISA plate with 0.5 μg/well anti-src mab in 100 μL of pH 9.6 sodium carbonate buffer at 4° C. overnight.
as §3, §4, §5
5. Add 10 μg/well of src transformed yeast lysates diluted in Lysis Buffer (0.1 mL total volume per well). (Amount of lysate may vary between hatches.) Shake plate for 20 minutes at room temperature.
as §6, §7, §8, §9
2. Add 0.08 mL Kinase Reaction Mixture per well (containing 10 μL of 10×Kinase Buffer and 10 μM (final concentration) biotin-[…] per well diluted in water.
as §10, §11, §12, §13, §14, §15, §16, §17, §18, §19, §20

T1 sequence (Q14289 whole entry): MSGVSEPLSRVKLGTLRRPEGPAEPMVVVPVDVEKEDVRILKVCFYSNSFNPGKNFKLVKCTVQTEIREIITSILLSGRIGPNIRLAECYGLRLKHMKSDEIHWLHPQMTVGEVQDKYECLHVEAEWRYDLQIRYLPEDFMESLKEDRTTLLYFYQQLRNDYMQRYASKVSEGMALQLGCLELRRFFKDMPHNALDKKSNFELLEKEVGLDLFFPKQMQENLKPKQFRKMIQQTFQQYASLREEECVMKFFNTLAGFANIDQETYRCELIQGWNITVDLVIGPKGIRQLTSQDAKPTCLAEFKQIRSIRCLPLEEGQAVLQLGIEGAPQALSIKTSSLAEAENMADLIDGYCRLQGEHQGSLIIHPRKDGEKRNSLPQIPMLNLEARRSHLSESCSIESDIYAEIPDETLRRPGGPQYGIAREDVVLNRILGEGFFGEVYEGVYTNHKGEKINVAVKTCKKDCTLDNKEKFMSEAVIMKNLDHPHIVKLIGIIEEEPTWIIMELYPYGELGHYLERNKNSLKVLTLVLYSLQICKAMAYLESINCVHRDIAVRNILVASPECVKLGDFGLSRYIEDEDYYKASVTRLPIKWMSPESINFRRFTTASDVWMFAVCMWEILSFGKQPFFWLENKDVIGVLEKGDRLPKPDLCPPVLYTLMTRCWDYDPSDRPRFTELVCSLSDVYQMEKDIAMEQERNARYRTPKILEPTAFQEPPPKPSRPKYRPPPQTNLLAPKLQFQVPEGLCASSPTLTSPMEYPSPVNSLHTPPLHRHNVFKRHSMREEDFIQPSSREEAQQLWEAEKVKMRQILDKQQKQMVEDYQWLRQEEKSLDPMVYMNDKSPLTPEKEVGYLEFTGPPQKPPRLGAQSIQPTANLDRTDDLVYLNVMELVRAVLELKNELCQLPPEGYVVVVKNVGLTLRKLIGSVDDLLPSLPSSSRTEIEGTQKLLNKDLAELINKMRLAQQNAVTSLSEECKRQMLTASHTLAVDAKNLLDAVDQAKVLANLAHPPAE

Turning to `Cc1ccc2c(c1)/C(=C/c1[nH]c3ccccc3c1C)C(=O)N2` [IN-001, 5-Methyl-3-(3-methyl-1H-indol-2-ylmethylene)-1,3-dihydro-indol-2-one], the figures for the inhibition at 100 µM at pyk-2 protein kinase and at src protein kinase were -16% and -62%, respectively.
For `Cc1c(/C=C2\C(=O)Nc3ccc(S(N)(=O)=O)cc32)[nH]c2ccccc12` [IN-002, 3-(3-Methyl-1H-indol-2-ylmethylene)-2-oxo-2,3-dihydro-1H-indole-5-sulfonic acid amide] the same measures were 46.7% and -3.5%.
On to `Cc1c(/C=C2\C(=O)Nc3ccc(C(=O)O)cc32)[nH]c2ccccc12` [IN-005, 3-(3-Methyl-1H-indol-2-ylmethylene)-2-oxo-2,3-dihydro-1H-indole-5-carboxylic acid], for which the negative logarithm of the IC50 (pIC50) against pyk-2 protein kinase is 6.66.
Regarding `CC(=O)c1ccc2c(c1)C(=Cc1[nH]c3ccccc3c1C)C(=O)N2` [IN-006, 5-Acetyl-3-(3-methyl-1H-indol-2-ylmethylene)-1,3-dihydro-indol-2-one], the inhibition at 100 µM against pyk-2 protein kinase was found to be 27%. In addition, at src protein kinase, the negative logarithm of the IC50 (pIC50) is < 4.00.
For the compound `CC(=O)c1ccc2c(c1)C(=Cc1cc3ccccc3[nH]1)C(=O)N2` [IN-007, 5-Acetyl-3-(1H-indol-2-ylmethylene)-1,3-dihydro-indol-2-one], the results for the inhibition at 100 µM against pyk-2 protein kinase and against src protein kinase were 17.9% and 12.4%, respectively.
At pyk-2 protein kinase, `NS(=O)(=O)c1ccc2c(c1)/C(=C/c1cc3ccccc3[nH]1)C(=O)N2` [IN-008, 3-(1H-Indol-2-ylmethylene)-2-oxo-2,3-dihydro-1H-indole-5-sulfonic acid amide] gave a pIC50 of 5.02. In addition, the inhibition at 100 µM at src protein kinase is -11%.
Take `Nc1ccc2c(c1)/C(=C/c1cc3ccccc3[nH]1)C(=O)N2` [IN-009, 5-Amino-3-(1H-indol-2-ylmethylene)-1,3-dihydro-indol-2-one]: the values for the negative-log IC50 (pIC50) against pyk-2 protein kinase and against src protein kinase were 6.17 and 5.05, respectively.
For the compound `O=C1Nc2ccc(C(=O)O)cc2/C1=C/c1cc2ccccc2[nH]1` [IN-010, 3-(1H-Indol-2-ylmethylene)-2-oxo-2,3-dihydro-1H-indole-5-carboxylic acid], at pyk-2 protein kinase, the pIC50 was 5.47. The inhibition at 100 µM on src protein kinase amounted to 36.4%.
With `O=C1Nc2cc(Cl)ccc2/C1=C/c1cc2ccccc2[nH]1` [IN-011, 6-Chloro-3-(1H-indol-2-ylmethylene)-1,3-dihydro-indol-2-one], the inhibition at 100 µM is 7.4% at pyk-2 protein kinase and -38.5% on src protein kinase.
The matching figures for `O=C1Nc2ccccc2/C1=C/c1cc2ccccc2[nH]1` [IN-012, 3-(1H-Indol-2-ylmethylene)-1,3-dihydro-indol-2-one]: 5.1% and -12%.
For the compound `O=C1Nc2ccc(Cl)cc2/C1=C/c1cc2ccccc2[nH]1` [IN-013, 5-chloro-3-(1H-indol-2-ylmethylene)-1,3-dihydro-indol-2-one], the values for the inhibition at 100 µM on pyk-2 protein kinase and on src protein kinase were -12% and -0.6%, respectively.
For `Cc1c(/C=C2\C(=O)Nc3ccccc32)[nH]c2ccccc12` [IN-016, 3-(3-Methyl-1H-indol-2-ylmethylene)-1,3-dihydro-indol-2-one] the same measures were -12.5% and 20.2%.
For `Cc1c(/C=C2\C(=O)Nc3ccc(Cl)cc32)[nH]c2ccccc12` [IN-017, 5-Chloro-3-(3-methyl-1H-indol-2-ylmethylene)-1,3-dihydro-indol-2-one] the same measures were -12% and 21.4%.
For `Cc1c(/C=C2\C(=O)Nc3ccc(Br)cc32)[nH]c2ccccc12` [IN-018, 5-Bromo-3-(3-methyl-1H-indol-2-ylmethylene)-1,3-dihydro-indol-2-one], the inhibition at 100 µM against pyk-2 protein kinase is 62%; against src protein kinase, 19.5%.
The matching figures for `Cc1cccc2c1/C(=C/c1[nH]c3ccccc3c1C)C(=O)N2` [IN-019, 4-Methyl-3-(3-methyl-1H-indol-2-ylmethylene)-1,3-dihydro-indol-2-one]: -36% and -6.5%.
